Counter-ions that a name gives are not always drawn.
Key:
[1] = tested on: streptococcal cell wall (SCW)-induced arthritis; experiment: Chronic streptococcal cell wall (SCW)-induced arthritis in Lewis rats, paw volume; assay type: in vivo; conditions: female Lewis rats, daily dosing from day 10, paw volume measured 11 days after start of administration, A at 200, 60, 20 mpk/day, B at 240, 120, 60 mpk/day, FIG. 3
Description: The use of Lewis rats with chronic streptococcal cell wall (SCW)-induced arthritis as models for testing potentially therapeutic compounds has been described by Richards, P. J., et al., Rhermatology (Oxford), 40(9):978-987 (2001), and Melay, L. M. et al, Bioorg. Med. Chem., 9(2):537-554 (2001), among others. In the present test, female Lewis rats were divided into eight groups. One group served as the “normal” control and received no arthritis inducement. Chronic streptococcal cell wall (SCW)-induced arthritis was induced in the remaining seven groups. One of the severn groups in which arthritis was induced served as a “vehicle” control and received dosage only of vehicle at the same intervals as those rats receiving the test compounds. Three additional groups of rats received the vehicle plus 2-{2-[(E)-2-phenylethenyl]pyridin-4-yl}-1,5,6,7-tetrahydro-4H-pyrrolo[3,2-c]pyridin-4-one (Compound “A”) in daily dosages. All rats were started on the test at day 0. […]
To measure the effectiveness of the compounds for the treatment of SCW-induced arthritis, rat paw volume was measured at eleven (11) days from the initiation of administration of the test compounds. […]

[2] = tested on: SCW-induced arthritis; experiment: Streptococcus cell wall (SCW)-induced arthritis, paw volume / paw swelling; assay type: in vivo; conditions: rats, FIG. 4, A at 20, 60, 200 mpk/day, B at 60, 120, 240 mpk/day
[3] = tested on: collagen-induced arthritis; conditions: mouse; cited from earlier work
[4] = tested on: endotoxin-induced shock; conditions: murine model of endotoxin-induced shock; cited from earlier work
[5] = tested on: adjuvant arthritis; conditions: rat; cited from earlier work
[6] = tested on: MK-2; conditions: cited from earlier work
[7] = tested on: granulomas; conditions: laboratory rats; cited from earlier work
[8] = target: Recombinant MAPKAPK2 (MK-2) (Homo sapiens, UniProt P49137); experiment: Determination of MK-2 IC50 (HSP-peptide phosphorylation, anion exchange resin capture assay); assay type: biochemical
Recombinant MAPKAPK2 (MK-2), sequence (P49137 whole entry, species assumed): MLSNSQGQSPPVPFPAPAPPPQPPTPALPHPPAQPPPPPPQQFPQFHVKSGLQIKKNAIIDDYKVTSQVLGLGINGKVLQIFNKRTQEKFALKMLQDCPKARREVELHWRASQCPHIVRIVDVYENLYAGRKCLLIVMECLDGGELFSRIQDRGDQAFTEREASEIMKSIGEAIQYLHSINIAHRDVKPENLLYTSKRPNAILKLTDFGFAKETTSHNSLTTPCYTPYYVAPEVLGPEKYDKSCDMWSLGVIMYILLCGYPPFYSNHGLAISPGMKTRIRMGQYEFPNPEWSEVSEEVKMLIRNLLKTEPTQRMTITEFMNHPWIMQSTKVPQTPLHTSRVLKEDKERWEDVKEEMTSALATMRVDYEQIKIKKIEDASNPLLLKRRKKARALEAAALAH
Description: The phosphorylation of HSP-peptide ([sequence]) by MAPKAPK2 was measured using an anion exchange resin capture assay method. […] The reaction was terminated and [γ^33P]ATP was removed from solution by the addition of 150 μl of AG 1×8 ion exchange resin in 900 mM sodium formate pH 3.0. A 50 μl aliquot of head volume was removed from the quenched reaction mixture and added to a 96-well plate, 150 μl of Microscint-40 (Packard) was added and the amount of phosphorylated-peptide was determined.
Compounds are evaluated as potential inhibitors of the MK2 kinase by measuring their effects on MK2 phosphorylation of the peptide substrate. Compounds may be screened initially at two concentrations prior to determination of IC50 values. Screening results are expressed as percent inhibition at the concentrations of compound tested. For IC50 value determinations, compounds are tested at six concentrations in ten-fold serial dilutions with each concentration tested in triplicate. Results are expressed as IC50 values in micromolar. The assay is performed at a final concentration of 2% DMSO.

In the case of O=C(O)C(F)(F)F.O=C1NCCc2[nH]c(-c3ccnc(-c4ccccc4F)c3)cc21 [B, 2-[2-(2-fluorophenyl)pyridin-4-yl]-1,5,6,7-tetrahydro-4H-pyrrolo[3,2-c]pyridin-4-one trifluoroacetate], the “average paw volume (increase versus vehicle controls)” value [1] is reported as “significantly lower increases in paw volume” and the “percent inhibition in paw swelling as a function of the dosage rate” value [2] is reported as “typical dose-response behavior”.
In the case of C[S+]([O-])c1ccc(-c2nc(-c3ccncc3)c(-c3ccc(F)cc3)[nH]2)cc1 (centres unmarked) [SB203580], the “development of collagen-induced arthritis” value [3] is given as “inhibit the development”, the mortality [4] is given as “reduce mortality” and the “development of adjuvant arthritis” value [5] is given as “inhibit the development”. For the same compound, the “inhibition of activation of MK-2” value [6] was “inhibit activation”.
For Nc1nccc(-c2c(-c3ccc(F)cc3)ncn2C2CCNCC2)n1 [SB 220025], the “vascular density of granulomas” value [7] is given as “significant dose-dependent decrease”.
In the case of O=C1NCCc2[nH]c(-c3ccnc(/C=C/c4ccccc4)c3)cc21 [Compound A, 2-{2-[(E)-2-phenylethenyl]pyridin-4-yl}-1,5,6,7-tetrahydro-4H-pyrrolo[3,2-c]pyridin-4-one], the “average paw volume (increase versus vehicle controls)” value [1] is reported as “significantly lower increases in paw volume” and the “percent inhibition in paw swelling as a function of the dosage rate” value [2] is reported as “typical dose-response behavior”.
With C=CC(=O)Nc1cccc(-c2cc(-c3cc4c([nH]3)CCNC4=O)ccn2)c1 [Example 82, trifluoroacetate] the IC50 ([8]; MAPKAP2 Avg. IC50) was 19.1 nM.
In the case of O=C(CBr)Nc1cccc(-c2cc(-c3cc4c([nH]3)CCNC4=O)ccn2)c1 [Example 271, trifluoroacetate], the “kind of MK-2 inhibition (irreversible)” value [8] is reported as “irreversible inhibitors”.
